The values below are quoted from earlier work in patent publication US10369266B2, “Multipart fluid system and a system for citrate anticoagulation in an extracorporeal blood circuit” (Gambro Lundia AB, priority 2013, dated 2019).

For the data set, the system named is endothelial inflammation and dysfunction. Particulars: citrate 0.8 mM; hypoglycemic state; in vitro.

Consider `O=C(O)CC(O)(CC(=O)O)C(=O)O` [citrate], for which the “effect on endothelial inflammation and dysfunction” value was “reduces endothelial inflammation and dysfunction”.
